# Experimental data as given in patent US6706663B2, “Herbicidal 3-heterocyclic substituted benzisothiazole and benzisoxazole compounds” (Wyeth, priority 2000, dated 2004).
# Experiments:
# [1] = test system: CYPSE (Cyperus serotinus); assay: Flooded paddy, preemergence weed control; type: in vivo, Rottb.; conditions: rated 3-4 weeks after treatment, 0-9 rating scale
# Procedure, shortened: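 Seeds or propagules were planted 0.5 cm deep in silt loam and flooded to 1.5–3 cm. Compounds in 50/50 v/v aqueous/acetone were pipetted into the flood water at about 0.0080 to 0.1250 kg/ha. After 3–4 weeks in the greenhouse, effect was rated visually on a 0–9 scale versus untreated control.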
# [2] = test system: TRZAWR (Wheat, Winter, cv Riband); assay: Postemergence herbicidal evaluation; type: in vivo, Triticum aestivum
# Procedure, shortened: (§1)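 Visual 0–9 injury scores versus control plants, covering stand, vigour, malformation, size, chlorosis and general appearance, taken four to five weeks post-spray and averaged over replicate tests. Plants were sprayed at roughly two weeks old and held on greenhouse benches.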
# [3] = test system: ECHCG (Echinochloa crus-galli); assay: Postemergence herbicidal evaluation; type: in vivo, (L.) Beau
# Procedure, shortened: as §1
# [4] = test system: ECHORC (Echinochloa oryzoides); assay: Flooded paddy, preemergence weed control; type: in vivo, Echinochloa oryzoides (Ard.) Fritsch.; conditions: rated 3-4 weeks after treatment, 0-9 rating scale
# Procedure, shortened: (§2)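 Under paddy conditions, seeds or vegetative propagules go into the top 0.5 cm of silt loam; the soil is then flooded to 1.5–3 cm and kept so. Treated pots stay in a greenhouse; response is rated 0-9 visually versus control.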
# [5] = test system: SETVI (Setaria viridis); assay: Postemergence herbicidal evaluation; type: in vivo, (L.) Beau
# Procedure, shortened: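 Seedlings grown about two weeks were sprayed with compound in 50/50 acetone/water containing 0.5% TWEEN 20, at about 0.0040 to 1.000 kg/ha via nozzle at 40 psi. Plants were kept under greenhouse conditions and visually rated on a 0-9 scale versus control four to five weeks after treatment; replicate tests averaged.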
# [6] = test system: ORYSAT (Rice, Tebonnet); assay: Preemergence herbicidal evaluation; type: in vivo, Oryza sativa, (L.) Tebonnet; conditions: preemergence, rated 4-5 weeks after treatment
# [7] = test system: ECHCG (Echinochloa crus-galli); assay: Preemergence herbicidal evaluation; type: in vivo, (L.) Beau; conditions: preemergence, rated 4-5 weeks after treatment
# Procedure, shortened: (§3)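 Rating 0–9, visual, vs control; 4–5 wk after spraying seeded cups with compound in aq. acetone; conventional greenhouse care.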
# [8] = test system: SETVI (Setaria viridis); assay: Preemergence herbicidal evaluation; type: in vivo, (L.) Beau; conditions: preemergence, rated 4-5 weeks after treatment
# Procedure, shortened: as §3
# [9] = test system: GLXMAW (Soybean, Williams); assay: Postemergence herbicidal evaluation; type: in vivo, Glycine max, (L.) Merr. cv Williams
# Procedure, shortened: as §1
# [10] = test system: ORYSAT (Rice, Tebonnet); assay: Postemergence herbicidal evaluation; type: in vivo, Oryza sativa, (L.) Tebonnet
# Procedure, shortened: as §1
# [11] = test system: GALAP (Galium aparine); assay: Preemergence herbicidal evaluation; type: in vivo; conditions: preemergence, rated 4-5 weeks after treatment
# Procedure, shortened: as §3
# [12] = test system: MOOVA (Monochoria vaginalis); assay: Flooded paddy, preemergence weed control; type: in vivo, Presl.; conditions: rated 3-4 weeks after treatment, 0-9 rating scale
# Procedure, shortened: as §2
# [13] = test system: IPOHE (Ipomoea hederacea); assay: Postemergence herbicidal evaluation; type: in vivo, (L.) Jacq.
# Procedure, shortened: as §1
# [14] = test system: ZEAMX (Corn, Field); assay: Postemergence herbicidal evaluation; type: in vivo, Zea mays, L.
# Procedure, shortened: as §1
# [15] = test system: ABUTH (Abutilon theophrasti); assay: Preemergence herbicidal evaluation; type: in vivo, Medic.; conditions: preemergence, rated 4-5 weeks after treatment
# [16] = test system: CHEAL (Chenopodium album); assay: Preemergence herbicidal evaluation; type: in vivo, L.; conditions: preemergence, rated 4-5 weeks after treatment
# Procedure, shortened: as §3
# [17] = test system: CASOB (Cassia obtusifolia); assay: Preemergence herbicidal evaluation; type: in vivo, L.; conditions: preemergence, rated 4-5 weeks after treatment
# Procedure, shortened: as §3
# [18] = test system: AMBEL (Ambrosia artemisifolia); assay: Preemergence herbicidal evaluation; type: in vivo, L.; conditions: preemergence, rated 4-5 weeks after treatment
# Procedure, shortened: as §3
# [19] = test system: TRZAWR (Wheat, Winter, cv Riband); assay: Preemergence herbicidal evaluation; type: in vivo, Triticum aestivum; conditions: preemergence, rated 4-5 weeks after treatment
# Procedure, shortened: as §3
compound,measurement,setting,value
"Cn1c(C(F)(F)F)cc(=O)n(-c2ccc3snc(C4OCC(C)(C)CO4)c3c2)c1=O [Compound 36, 3-[3(5,5-dimethyl-m-dioxan-2-yl)-1,2-benzisothiazol-5-yl]-1-methyl-6-(trifluoromethyl)uracil]","herbicidal rating, CYPSE",[1]; rate 0.0320 kg/ha,9.0
same,"herbicidal rating, CYPSE",[1]; rate 0.1250 kg/ha,9.0
same,"Postemergence herbicidal rating, TRZAWR",[2]; rate 0.0320 kg/ha,4.0
same,"Postemergence herbicidal rating, TRZAWR",[2]; rate 0.0620 kg/ha,4.5
same,"Postemergence herbicidal rating, ECHCG",[3]; rate 0.0320 kg/ha,1.0
same,"Postemergence herbicidal rating, ECHCG",[3]; rate 0.0620 kg/ha,3.0
same,"herbicidal rating, ECHORC",[4]; rate 0.0080 kg/ha,5.0
same,"herbicidal rating, ECHORC",[4]; rate 0.0320 kg/ha,8.5
same,"herbicidal rating, ECHORC",[4]; rate 0.1250 kg/ha,9.0
same,"Postemergence herbicidal rating, SETVI",[5]; rate 0.0320 kg/ha,4.0
same,"Postemergence herbicidal rating, SETVI",[5]; rate 0.0620 kg/ha,9.0
same,ORYSAT preemergence herbicidal rating,[6]; Rate 0.0620 kg/ha,7.5
same,ORYSAT preemergence herbicidal rating,[6]; Rate 0.1250 kg/ha,9.0
same,ORYSAT preemergence herbicidal rating,[6]; Rate 0.2500 kg/ha,9.0
same,ECHCG preemergence herbicidal rating,[7]; Rate 0.0620 kg/ha,9.0
same,ECHCG preemergence herbicidal rating,[7]; Rate 0.1250 kg/ha,9.0
same,ECHCG preemergence herbicidal rating,[7]; Rate 0.2500 kg/ha,9.0
same,SETVI preemergence herbicidal rating,[8]; Rate 0.0620 kg/ha,9.0
same,SETVI preemergence herbicidal rating,[8]; Rate 0.1250 kg/ha,9.0
same,SETVI preemergence herbicidal rating,[8]; Rate 0.2500 kg/ha,9.0
same,"Postemergence herbicidal rating, GLXMAW",[9]; rate 0.0320 kg/ha,7.5
same,"Postemergence herbicidal rating, GLXMAW",[9]; rate 0.0620 kg/ha,9.0
same,"Postemergence herbicidal rating, ORYSAT",[10]; rate 0.0320 kg/ha,4.5
same,"Postemergence herbicidal rating, ORYSAT",[10]; rate 0.0620 kg/ha,7.0
same,GALAP preemergence herbicidal rating,[11]; Rate 0.0620 kg/ha,5.0
same,GALAP preemergence herbicidal rating,[11]; Rate 0.1250 kg/ha,9.0
same,GALAP preemergence herbicidal rating,[11]; Rate 0.2500 kg/ha,9.0
same,"herbicidal rating, MOOVA",[12]; rate 0.0080 kg/ha,9.0
same,"herbicidal rating, MOOVA",[12]; rate 0.0320 kg/ha,9.0
same,"Postemergence herbicidal rating, IPOHE",[13]; rate 0.0320 kg/ha,9.0
same,"Postemergence herbicidal rating, IPOHE",[13]; rate 0.0620 kg/ha,9.0
same,"Postemergence herbicidal rating, ZEAMX",[14]; rate 0.0320 kg/ha,5.0
same,"Postemergence herbicidal rating, ZEAMX",[14]; rate 0.0620 kg/ha,6.0
same,ABUTH preemergence herbicidal rating,[15]; Rate 0.0620 kg/ha,9.0
same,ABUTH preemergence herbicidal rating,[15]; Rate 0.1250 kg/ha,9.0
same,ABUTH preemergence herbicidal rating,[15]; Rate 0.2500 kg/ha,9.0
same,CHEAL preemergence herbicidal rating,[16]; Rate 0.0620 kg/ha,9.0
same,CHEAL preemergence herbicidal rating,[16]; Rate 0.1250 kg/ha,9.0
same,CHEAL preemergence herbicidal rating,[16]; Rate 0.2500 kg/ha,9.0
same,CASOB preemergence herbicidal rating,[17]; Rate 0.0620 kg/ha,5.0
same,CASOB preemergence herbicidal rating,[17]; Rate 0.1250 kg/ha,9.0
same,CASOB preemergence herbicidal rating,[17]; Rate 0.2500 kg/ha,9.0
same,AMBEL preemergence herbicidal rating,[18]; Rate 0.0620 kg/ha,9.0
same,AMBEL preemergence herbicidal rating,[18]; Rate 0.1250 kg/ha,9.0
same,AMBEL preemergence herbicidal rating,[18]; Rate 0.2500 kg/ha,9.0
same,TRZAWR preemergence herbicidal rating,[19]; Rate 0.0620 kg/ha,9.0
same,TRZAWR preemergence herbicidal rating,[19]; Rate 0.1250 kg/ha,9.0
same,TRZAWR preemergence herbicidal rating,[19]; Rate 0.2500 kg/ha,9.0
"CC1CCOC(c2nsc3ccc(-n4c(=O)cc(C(F)(F)F)n(C)c4=O)cc23)O1 (stereo not drawn) [Compound 37, 1-methyl-3-[3-(4-methyl-m-dioxan-2-yl)-1,2-benzisothiazol-5-yl]-6-(trifluoromethyl)uracil]","herbicidal rating, CYPSE",[1]; rate 0.0320 kg/ha,9.0
same,"herbicidal rating, CYPSE",[1]; rate 0.1250 kg/ha,9.0
same,"Postemergence herbicidal rating, TRZAWR",[2]; rate 0.0320 kg/ha,5.0
same,"Postemergence herbicidal rating, TRZAWR",[2]; rate 0.0620 kg/ha,7.0
same,"Postemergence herbicidal rating, ECHCG",[3]; rate 0.0320 kg/ha,4.0
same,"Postemergence herbicidal rating, ECHCG",[3]; rate 0.0620 kg/ha,4.0
same,"herbicidal rating, ECHORC",[4]; rate 0.0080 kg/ha,3.0
same,"herbicidal rating, ECHORC",[4]; rate 0.0320 kg/ha,9.0
same,"herbicidal rating, ECHORC",[4]; rate 0.1250 kg/ha,9.0
same,"Postemergence herbicidal rating, SETVI",[5]; rate 0.0320 kg/ha,9.0
same,"Postemergence herbicidal rating, SETVI",[5]; rate 0.0620 kg/ha,9.0
same,ORYSAT preemergence herbicidal rating,[6]; Rate 0.0620 kg/ha,9.0
same,ORYSAT preemergence herbicidal rating,[6]; Rate 0.1250 kg/ha,9.0
same,ORYSAT preemergence herbicidal rating,[6]; Rate 0.2500 kg/ha,9.0
same,ECHCG preemergence herbicidal rating,[7]; Rate 0.0620 kg/ha,9.0
same,ECHCG preemergence herbicidal rating,[7]; Rate 0.1250 kg/ha,9.0
same,ECHCG preemergence herbicidal rating,[7]; Rate 0.2500 kg/ha,9.0
same,SETVI preemergence herbicidal rating,[8]; Rate 0.0620 kg/ha,9.0
same,SETVI preemergence herbicidal rating,[8]; Rate 0.1250 kg/ha,9.0
same,SETVI preemergence herbicidal rating,[8]; Rate 0.2500 kg/ha,9.0
same,"Postemergence herbicidal rating, GLXMAW",[9]; rate 0.0320 kg/ha,9.0
same,"Postemergence herbicidal rating, GLXMAW",[9]; rate 0.0620 kg/ha,9.0
same,"Postemergence herbicidal rating, ORYSAT",[10]; rate 0.0320 kg/ha,4.5
same,"Postemergence herbicidal rating, ORYSAT",[10]; rate 0.0620 kg/ha,5.0
same,GALAP preemergence herbicidal rating,[11]; Rate 0.0620 kg/ha,5.0
same,GALAP preemergence herbicidal rating,[11]; Rate 0.1250 kg/ha,9.0
same,GALAP preemergence herbicidal rating,[11]; Rate 0.2500 kg/ha,9.0
same,"herbicidal rating, MOOVA",[12]; rate 0.0080 kg/ha,3.0
same,"herbicidal rating, MOOVA",[12]; rate 0.0320 kg/ha,9.0
same,"Postemergence herbicidal rating, IPOHE",[13]; rate 0.0320 kg/ha,9.0
same,"Postemergence herbicidal rating, IPOHE",[13]; rate 0.0620 kg/ha,9.0
same,"Postemergence herbicidal rating, ZEAMX",[14]; rate 0.0320 kg/ha,6.0
same,"Postemergence herbicidal rating, ZEAMX",[14]; rate 0.0620 kg/ha,6.0
same,ABUTH preemergence herbicidal rating,[15]; Rate 0.0620 kg/ha,9.0
same,ABUTH preemergence herbicidal rating,[15]; Rate 0.1250 kg/ha,9.0
same,ABUTH preemergence herbicidal rating,[15]; Rate 0.2500 kg/ha,9.0
same,CHEAL preemergence herbicidal rating,[16]; Rate 0.0620 kg/ha,9.0
same,CHEAL preemergence herbicidal rating,[16]; Rate 0.1250 kg/ha,9.0
same,CHEAL preemergence herbicidal rating,[16]; Rate 0.2500 kg/ha,9.0
same,CASOB preemergence herbicidal rating,[17]; Rate 0.0620 kg/ha,7.0
same,CASOB preemergence herbicidal rating,[17]; Rate 0.1250 kg/ha,8.0
same,CASOB preemergence herbicidal rating,[17]; Rate 0.2500 kg/ha,9.0
same,AMBEL preemergence herbicidal rating,[18]; Rate 0.0620 kg/ha,9.0
same,AMBEL preemergence herbicidal rating,[18]; Rate 0.1250 kg/ha,9.0
same,AMBEL preemergence herbicidal rating,[18]; Rate 0.2500 kg/ha,9.0
same,TRZAWR preemergence herbicidal rating,[19]; Rate 0.0620 kg/ha,9.0
same,TRZAWR preemergence herbicidal rating,[19]; Rate 0.1250 kg/ha,9.0
same,TRZAWR preemergence herbicidal rating,[19]; Rate 0.2500 kg/ha,9.0
